Laboratory results: ChEMBL document CHEMBL1201861, “Genomics of Drug Sensitity in Cancer screening data, Wellcome Trust Sanger Institute”
pIC50: −log10 of the molar value.

Legend:
Assay in all cases: cells
Conditions in all cases: Homo sapiens
KE-37 = assay type: functional, cell-based;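 note: growth inhibition of KE-37 cells, read out with a cell viability assay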
Description: SANGER: Inhibition of human KE-37 cell growth in a cell viability assay.

LS-1034 = assay type: functional, cell-based
Description: SANGER: Inhibition of human LS-1034 cell growth in a cell viability assay.

LB373-MEL-D = assay type: functional, cell-based;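 note: growth inhibition of the cell line, read out in a cell viability assay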
Description: SANGER: Inhibition of human LB373-MEL-D cell growth in a cell viability assay.

IST-MES1 = assay type: functional, cell-based;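 note: growth inhibition of IST-MES1 cells, measured with a cell viability assay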
Description: SANGER: Inhibition of human IST-MES1 cell growth in a cell viability assay.

MHH-NB-11 = assay type: functional, cell-based;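 note: growth inhibition of human MHH-NB-11 cells, read out by a cell viability assay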
Description: SANGER: Inhibition of human MHH-NB-11 cell growth in a cell viability assay.

ML-2 = assay type: functional, cell-based;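 note: growth inhibition of ML-2 cells, measured with a cell viability readout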
Description: SANGER: Inhibition of human ML-2 cell growth in a cell viability assay.

SF-126 = assay type: functional, cell-based;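 note: growth inhibition of human SF126 cells, read out with a cell viability assay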
Description: SANGER: Inhibition of human SF126 cell growth in a cell viability assay.

HL-60 = assay type: functional, cell-based;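 note: growth inhibition of human HL-60 cells, read out with a cell viability assay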
Description: SANGER: Inhibition of human HL-60 cell growth in a cell viability assay.

CTB-1 = assay type: functional, cell-based
Description: SANGER: Inhibition of human CTB-1 cell growth in a cell viability assay.

ES7 = assay type: functional, cell-based;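 note: growth inhibition of cultured human ES7 cells, read out as cell viability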
Description: SANGER: Inhibition of human ES7 cell growth in a cell viability assay.

MZ2-MEL = assay type: functional, cell-based;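 note: growth inhibition of MZ2-MEL cells read out with a cell viability assay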
Description: SANGER: Inhibition of human MZ2-MEL cell growth in a cell viability assay.

LAMA-84 = assay type: functional, cell-based;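 note: growth inhibition of LAMA-84 cells, read out with a cell viability assay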
Description: SANGER: Inhibition of human LAMA-84 cell growth in a cell viability assay.

HCE-T = assay type: functional, cell-based;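 note: cell viability assay read-out, reporting inhibition of HCE-T cell growth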
Description: SANGER: Inhibition of human HCE-T cell growth in a cell viability assay.

NCI-H2126 = assay type: functional, cell-based;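 note: growth inhibition of the cancer cell line, determined with a cell viability readout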
Description: SANGER: Inhibition of human NCI-H2126 cell growth in a cell viability assay.

MFH-ino = assay type: functional, cell-based;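 note: growth inhibition of human MFH-ino cells, read out by a cell viability assay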
Description: SANGER: Inhibition of human MFH-ino cell growth in a cell viability assay.

HD-MY-Z = assay type: functional, cell-based;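 note: growth inhibition of HD-MY-Z cells, read out with a cell viability assay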
Description: SANGER: Inhibition of human HD-MY-Z cell growth in a cell viability assay.

DSH1 = assay type: functional, cell-based;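 note: growth inhibition of human DSH1 cells, measured with a cell viability readout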
Description: SANGER: Inhibition of human DSH1 cell growth in a cell viability assay.

D-263MG = assay type: functional, cell-based
Description: SANGER: Inhibition of human D-263MG cell growth in a cell viability assay.

NCI-H747 = assay type: functional, cell-based;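 note: growth inhibition of human NCI-H747 cells, read out by a cell viability assay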
Description: SANGER: Inhibition of human NCI-H747 cell growth in a cell viability assay.

SF-268 = assay type: functional, cell-based;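 note: growth inhibition of SF-268 cells determined with a cell viability assay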
Description: SANGER: Inhibition of human SF268 cell growth in a cell viability assay.

K562 = assay type: functional, cell-based
Description: SANGER: Inhibition of human K-562 cell growth in a cell viability assay.

ETK-1 = assay type: functional, cell-based;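 note: growth inhibition of human ETK-1 cells, read out with a cell viability assay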
Description: SANGER: Inhibition of human ETK-1 cell growth in a cell viability assay.

GT3TKB = assay type: functional, cell-based;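 note: growth inhibition of the cell line, read out with a cell viability assay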
Description: SANGER: Inhibition of human GT3TKB cell growth in a cell viability assay.

NKM-1 = assay type: functional, cell-based;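 note: growth inhibition of NKM-1 cells, read out with a cell viability assay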
Description: SANGER: Inhibition of human NKM-1 cell growth in a cell viability assay.

PSN1 = assay type: functional, cell-based;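 note: suppression of growth of human PSN1 cells, read out by a cell viability assay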
Description: SANGER: Inhibition of human PSN1 cell growth in a cell viability assay.

TE-5 = assay type: functional, cell-based;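 note: inhibition of cell growth, read out by a cell viability assay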
Description: SANGER: Inhibition of human TE-5 cell growth in a cell viability assay.

EC-GI-10 = assay type: functional, cell-based
Description: SANGER: Inhibition of human EC-GI-10 cell growth in a cell viability assay.

BT-474 = assay type: functional, cell-based
Description: SANGER: Inhibition of human BT-474 cell growth in a cell viability assay.

HC-1 = assay type: functional, cell-based;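 note: growth inhibition of HC-1 cells measured by a cell viability assay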
Description: SANGER: Inhibition of human HC-1 cell growth in a cell viability assay.

EW-11 = assay type: functional, cell-based;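 note: growth inhibition of human EW-11 cells, measured with a cell viability assay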
Description: SANGER: Inhibition of human EW-11 cell growth in a cell viability assay.

NCI-H1355 = assay type: functional, cell-based;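 note: growth inhibition of human NCI-H1355 cells, read out by a cell viability assay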
Description: SANGER: Inhibition of human NCI-H1355 cell growth in a cell viability assay.

DOHH-2 = assay type: functional, cell-based;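 note: growth inhibition of human DOHH-2 cells, read out with a cell viability assay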
Description: SANGER: Inhibition of human DOHH-2 cell growth in a cell viability assay.

ONS-76 = assay type: functional, cell-based;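 note: growth inhibition of human ONS-76 cells, read out with a cell viability assay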
Description: SANGER: Inhibition of human ONS-76 cell growth in a cell viability assay.

LU-134-A = assay type: functional, cell-based
Description: SANGER: Inhibition of human LU-134-A cell growth in a cell viability assay.

HT = assay type: functional, cell-based
Description: SANGER: Inhibition of human HT cell growth in a cell viability assay.

NCI-H526 = assay type: functional, cell-based;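 note: growth inhibition of the human NCI-H526 cell line, measured by a cell viability assay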
Description: SANGER: Inhibition of human NCI-H526 cell growth in a cell viability assay.

MC116 = assay type: functional, cell-based;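 note: growth inhibition of MC116 cells, read out with a cell viability assay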
Description: SANGER: Inhibition of human MC116 cell growth in a cell viability assay.

VA-ES-BJ = assay type: functional, cell-based;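 note: growth inhibition of the VA-ES-BJ cell line, read out by a cell viability assay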
Description: SANGER: Inhibition of human VA-ES-BJ cell growth in a cell viability assay.

OVCAR-4 = assay type: functional, cell-based;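 note: growth inhibition of human OVCAR-4 cells, measured with a cell viability assay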
Description: SANGER: Inhibition of human OVCAR-4 cell growth in a cell viability assay.

NOMO-1 = assay type: functional, cell-based;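 note: growth inhibition of human NOMO-1 cells measured by a cell viability assay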
Description: SANGER: Inhibition of human NOMO-1 cell growth in a cell viability assay.

KS-1 = assay type: functional, cell-based;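 note: growth inhibition of KS-1 cells, read out with a cell viability assay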
Description: SANGER: Inhibition of human KS-1 cell growth in a cell viability assay.

L-363 = assay type: functional, cell-based
Description: SANGER: Inhibition of human L-363 cell growth in a cell viability assay.

COLO-320-HSR = assay type: functional, cell-based;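 note: growth inhibition of COLO-320-HSR cells, determined with a cell viability assay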
Description: SANGER: Inhibition of human COLO-320-HSR cell growth in a cell viability assay.

LS-411N = assay type: functional, cell-based
SW 962 = assay type: functional, cell-based;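 note: growth inhibition of human SW962 cells, read out by a cell viability assay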
Description: SANGER: Inhibition of human SW962 cell growth in a cell viability assay.

SH-4 = assay type: functional, cell-based;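 note: growth inhibition of SH-4 cells, read out with a cell viability assay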
Description: SANGER: Inhibition of human SH-4 cell growth in a cell viability assay.

J-RT3-T3-5 = assay type: functional, cell-based;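 note: cell viability assay measuring growth inhibition of human J-RT3-T3-5 cells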
Description: SANGER: Inhibition of human J-RT3-T3-5 cell growth in a cell viability assay.

NMC-G1 = assay type: functional, cell-based;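 note: growth inhibition of the NMC-G1 cell line, measured with a cell viability read-out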
Description: SANGER: Inhibition of human NMC-G1 cell growth in a cell viability assay.

L-428 = assay type: functional, cell-based
Description: SANGER: Inhibition of human L-428 cell growth in a cell viability assay.

NCI-H720 = assay type: functional, cell-based;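 note: growth inhibition of human NCI-H720 cells determined by a cell viability assay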
Description: SANGER: Inhibition of human NCI-H720 cell growth in a cell viability assay.

DU-4475 = assay type: functional, cell-based
Description: SANGER: Inhibition of human DU-4475 cell growth in a cell viability assay.

GR-ST = assay type: functional, cell-based
Description: SANGER: Inhibition of human GR-ST cell growth in a cell viability assay.

LXF-289 cell line = assay type: functional, cell-based
Description: SANGER: Inhibition of human LXF-289 cell growth in a cell viability assay.

MOLT-4 = assay type: functional, cell-based;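 note: growth inhibition of MOLT-4 cells, determined with a cell viability readout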
Description: SANGER: Inhibition of human MOLT-4 cell growth in a cell viability assay.

BB49-HNC = assay type: functional, cell-based;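 note: cell viability assay read-out, reported as inhibition of BB49-HNC cell growth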
Description: SANGER: Inhibition of human BB49-HNC cell growth in a cell viability assay.

EM-2 = assay type: functional, cell-based;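 note: growth inhibition of EM-2 cells, read out with a cell viability assay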
Description: SANGER: Inhibition of human EM-2 cell growth in a cell viability assay.

COLO-829 = assay type: functional, cell-based
Description: SANGER: Inhibition of human COLO-829 cell growth in a cell viability assay.

EW-16 = assay type: functional, cell-based;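 note: growth inhibition of human EW-16 cells, read out as cell viability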
Description: SANGER: Inhibition of human EW-16 cell growth in a cell viability assay.

no-10 = assay type: functional, cell-based;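 note: growth inhibition of no-10 cells, read out with a cell viability assay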
Description: SANGER: Inhibition of human no-10 cell growth in a cell viability assay.

RS4-11 = assay type: functional, cell-based;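 note: growth inhibition of RS4-11 cells, read out by a cell viability assay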
Description: SANGER: Inhibition of human RS4-11 cell growth in a cell viability assay.

MV4-11 = assay type: functional, cell-based, MV-4-11;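 note: cell viability readout measuring growth inhibition of human MV-4-11 cells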
Description: SANGER: Inhibition of human MV-4-11 cell growth in a cell viability assay.

C2BBe1 = assay type: functional, cell-based;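 note: growth inhibition of C2BBe1 cells, read out through a viability assay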
Description: SANGER: Inhibition of human C2BBe1 cell growth in a cell viability assay.

LAN-6 = assay type: functional, cell-based;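 note: growth inhibition of LAN-6 cells, determined with a cell viability assay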
Description: SANGER: Inhibition of human LAN-6 cell growth in a cell viability assay.

NCI-H82 = assay type: functional, cell-based;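 note: growth inhibition of NCI-H82 cells, measured with a cell viability readout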
Description: SANGER: Inhibition of human NCI-H82 cell growth in a cell viability assay.

NCI-H1299 = assay type: functional, cell-based
Description: SANGER: Inhibition of human NCI-H1299 cell growth in a cell viability assay.

MLMA = assay type: functional, cell-based
Description: SANGER: Inhibition of human MLMA cell growth in a cell viability assay.

SMILES: C/C=C(/C)C(=O)O[C@H]1C(C)=C2[C@H]([C@@H]1OC(=O)CCCCCCC)[C@@](C)(OC(C)=O)C[C@H](OC(=O)CCC)[C@@]1(O)[C@H]2OC(=O)[C@@]1(C)O [THAPSIGARGIN]
- pIC50 (KE-37): 8.12
- pIC50 (LS-1034): 7.54
- pIC50 (LB373-MEL-D): 7.54
- pIC50 (IST-MES1): 6.86
- pIC50 (MHH-NB-11): 7.35
- pIC50 (ML-2): 7.27
- pIC50 (SF-126): 7.42
- pIC50 (HL-60): < 6.29
- pIC50 (CTB-1): 7.77
- pIC50 (ES7): 7.68
- pIC50 (MZ2-MEL): 8.75
- pIC50 (LAMA-84): 7.71
- pIC50 (HCE-T): 7.44
- pIC50 (NCI-H2126): 7.10
- pIC50 (MFH-ino): 8.88
- pIC50 (HD-MY-Z): 7.76
- pIC50 (DSH1): 7.86
- pIC50 (D-263MG): 7.43
- pIC50 (NCI-H747): 7.00
- pIC50 (SF-268): 8.65
- pIC50 (K562): 6.52
- pIC50 (ETK-1): > 8.70
- pIC50 (GT3TKB): 7.91
- pIC50 (NKM-1): 8.21
- pIC50 (PSN1): > 8.70
- pIC50 (TE-5): < 6.29
- pIC50 (EC-GI-10): 6.45
- pIC50 (BT-474): 6.68
- pIC50 (HC-1): 6.96
- pIC50 (EW-11): 7.26
- pIC50 (NCI-H1355): 8.26
- pIC50 (DOHH-2): 7.65
- pIC50 (ONS-76): 8.00
- pIC50 (LU-134-A): 7.03
- pIC50 (HT): 8.24
- pIC50 (NCI-H526): 7.47
- pIC50 (MC116): > 8.70
- pIC50 (VA-ES-BJ): 7.74
- pIC50 (OVCAR-4): 8.53
- pIC50 (NOMO-1): < 6.29
- pIC50 (KS-1): 8.44
- pIC50 (L-363): 9.08
- pIC50 (COLO-320-HSR): 7.32
- pIC50 (LS-411N): 7.87
- pIC50 (SW 962): 8.16
- pIC50 (SH-4): 7.75
- pIC50 (J-RT3-T3-5): 6.85
- pIC50 (NMC-G1): 7.67
- pIC50 (L-428): < 6.29
- pIC50 (NCI-H720): < 6.29
- pIC50 (DU-4475): 8.22
- pIC50 (GR-ST): 7.98
- pIC50 (LXF-289 cell line): > 8.70
- pIC50 (MOLT-4): 7.40
- pIC50 (BB49-HNC): < 6.29
- pIC50 (EM-2): 7.26
- pIC50 (COLO-829): 7.53
- pIC50 (EW-16): 9.22
- pIC50 (no-10): < 6.29
- pIC50 (RS4-11): 8.89
- pIC50 (MV4-11): 7.96
- pIC50 (C2BBe1): 7.53
- pIC50 (LAN-6): < 6.29
- pIC50 (NCI-H82): 7.51
- pIC50 (NCI-H1299): 9.06
- pIC50 (MLMA): 7.24

SMILES: C[C@]1(c2nc3c(C(N)=O)cccc3[nH]2)CCCN1 [VELIPARIB]
- pIC50 (KE-37): < 5.30
- pIC50 (LS-1034): < 5.30
- pIC50 (LB373-MEL-D): < 5.30
- pIC50 (IST-MES1): < 5.30
- pIC50 (MHH-NB-11): < 5.30
- pIC50 (ML-2): < 5.30
- pIC50 (SF-126): < 5.30
- pIC50 (HL-60): < 5.30
- pIC50 (CTB-1): < 5.30
- pIC50 (ES7): < 5.30
- pIC50 (MZ2-MEL): < 5.30
- pIC50 (LAMA-84): < 5.30
- pIC50 (HCE-T): < 5.30
- pIC50 (NCI-H2126): < 5.30
- pIC50 (MFH-ino): < 5.30
- pIC50 (HD-MY-Z): < 5.30
- pIC50 (DSH1): < 5.30
- pIC50 (D-263MG): < 5.30
- pIC50 (NCI-H747): < 5.30
- pIC50 (SF-268): < 5.30
- pIC50 (K562): < 5.30
- pIC50 (ETK-1): < 5.30
- pIC50 (GT3TKB): < 5.30
- pIC50 (NKM-1): < 5.30
- pIC50 (PSN1): < 5.30
- pIC50 (TE-5): < 5.30
- pIC50 (EC-GI-10): < 5.30
- pIC50 (BT-474): < 5.30
- pIC50 (HC-1): < 5.30
- pIC50 (EW-11): < 5.30
- pIC50 (NCI-H1355): < 5.30
- pIC50 (DOHH-2): < 5.30
- pIC50 (ONS-76): < 5.30
- pIC50 (LU-134-A): < 5.30
- pIC50 (HT): < 5.30
- pIC50 (NCI-H526): < 5.30
- pIC50 (MC116): < 5.30
- pIC50 (VA-ES-BJ): < 5.30
- pIC50 (OVCAR-4): < 5.30
- pIC50 (NOMO-1): < 5.30
- pIC50 (KS-1): < 5.30
- pIC50 (L-363): < 5.30
- pIC50 (COLO-320-HSR): < 5.30
- pIC50 (LS-411N): < 5.30
- pIC50 (SW 962): < 5.30
- pIC50 (SH-4): < 5.30
- pIC50 (J-RT3-T3-5): < 5.30
- pIC50 (NMC-G1): < 5.30
- pIC50 (L-428): < 5.30
- pIC50 (NCI-H720): < 5.30
- pIC50 (DU-4475): < 5.30
- pIC50 (GR-ST): < 5.30
- pIC50 (LXF-289 cell line): < 5.30
- pIC50 (MOLT-4): < 5.30
- pIC50 (BB49-HNC): < 5.30
- pIC50 (EM-2): < 5.30
- pIC50 (COLO-829): < 5.30
- pIC50 (EW-16): < 5.30
- pIC50 (no-10): < 5.30
- pIC50 (RS4-11): < 5.30
- pIC50 (MV4-11): < 5.30
- pIC50 (C2BBe1): < 5.30
- pIC50 (LAN-6): < 5.30
- pIC50 (NCI-H82): < 5.30
- pIC50 (NCI-H1299): < 5.30
- pIC50 (MLMA): < 5.30
